Values after ≈ are worked out from the molar mass of the structure shown. “Also recorded” adds a separate entry of the source. Like-named read-outs stand apart in the source and are kept apart here. One block for each molecule: values may come before it. Starred links: 1 amine or outer side, 2 acyl side, 3 side chain; linkers in the order of their positions; H or OH if unused. Non-standard residues stand in square brackets, D forms with d. Residues, ends and D or L forms follow the SMILES beside them. *: point of attachment. DAMPA = CN(Cc1cnc2nc(N)nc(N)c2n1)c1ccc(C(=O)*)cc1; γGlu = O=C(O)[C@H](CCC(=O)[*:2])N[*:1]; Cha = N[C@@H](CC1CCCCC1)C(=O)O
Columns and labels:
[1] = tested on: E. faecalis (ATCC 29212); assay: microbe, parasite or virus in culture; type: cell-based, Enterococcus faecalis
Procedure: (§1) Cell Culturing Conditions. HeLa cells were cultured in MEM alpha (Invitrogen, Carlsbad) supplemented with 10% (v/v) FBS at 37° C. with 5% CO2. Escherichia coli strain JW5503 from the Keio collection^12 (F−, Δ(araD-araB)567, ΔlacZ4787(:rrnB-3), λ^−, ΔtolC732:kan, rph-1, Δ(rhaD-rhaB)568, hsdR514) was grown on solid LB-agar or in LB liquid media supplemented with 50 μg/mL kanamycin at 37° C. Strains harboring the pCA24N plasmid were additionally grown with chloramphenicol at 20 μg/mL. B. subtilis was grown in LB media. S. aureus and E. faecalis were grown in Trypticase Soy Broth (TSB). S. pneumoniae were grown in TSB+5% defibrinated sheep's blood at 37° C. in an atmosphere of 5% CO2.
(§2) Minimum inhibitory concentration (MIC) determinations were performed to characterize the effect of each compound on bacterial growth. Briefly, overnight cultures were subcultured at 1:100 and grown to and OD600 of 0.5. Cells were Diluted 1:10000 into fresh media with test compounds. Cells were incubated for 16 hours at 37° C. Growth was monitored at OD600. Multi-copy suppression of compound toxicity was accomplished by inducing FolA (DHFR) expression from the pCA24N plasmid with 0.1 mM IPTG prior the incubation with test compounds. Compound toxicity was assessed in LB media for E. coli. […]

[2] = tested on: B. subtilis; assay: microbe, parasite or virus in culture; type: cell-based, Bacillus subtilis
Procedure: as §1, §2

[3] = tested on: S. aureus (ATCC 29213); assay: microbe, parasite or virus in culture; type: cell-based, Staphylococcus aureus
Procedure: as §1, §2

[4] = tested on: MRSA (ATCC BAA-1720); assay: microbe, parasite or virus in culture; type: cell-based, methicillin-resistant S. aureus
Procedure: as §1, §2

[5] = tested on: S. pneumoniae (ATCC 49619); assay: microbe, parasite or virus in culture; type: cell-based, Streptococcus pneumoniae
Procedure: Minimum inhibitory concentration (MIC) determinations were performed to characterize the effect of each compound on bacterial growth. Briefly, overnight cultures were subcultured at 1:100 and grown to and OD600 of 0.5. Cells were Diluted 1:10000 into fresh media with test compounds. Cells were incubated for 16 hours at 37° C. Growth was monitored at OD600. […] For S. aureus B. subtilis, S. pneumonaie, and E. faecalis the defined media Mem-alpha minus nucleotides (Invitrogen, Carlsbad Calif.) was used to control for variability in thymidine content of undefined media. The final dilution into media was at 1:2000 for S. pneumoniae, and E. faecalis. 3% laked horse blood was added to the media for S. pnemoniae.

[6] = Analysis of cell toxicity (HeLa), CCK-8 viability; type: cell-based; settings: human, HeLa cells, 72-hour incubation, read-out: LD50 (50% lethal dose, concentration where 50% toxicity is observed)
Procedure: HeLa cells were cultured as described above. Cells were seeded in 96-well flat bottom tissue culture plates (Starsted, N.C.) at a density of 1500 cells per well. The culture media was removed and cells were washed with MEM-alpha (minus nucleotides). […] Cellular viability was analyzed after the indicated times using the CCK-8 viability dye (Dojindo, Rockville, Md.) at an absorbance of 450 nm.

[7] = tested on: HeLa cells; assay: Measurement of cellular ATP levels; type: cell-based, human; settings: Mtx-Fxr3 16 μM 16 hours, rotenone 100 nM 1 hour
Procedure: HeLa cells were seeded at a density of 50,000 cells per well one day prior to experiments. […] After treatment, cells were washed with PBS, harvested with trypsin/EDTA for 7 min at 37° C. Complete media was added to terminate the reaction and cells were collected by centrifugation (8 min at 700×g) and washed with PBS. Cells were lysed with 40 μl 1% TCA/4 mM EDTA for 20 minutes on ice, followed by 20 μl 1M Tris buffer pH 7.4. ATP levels were assessed using the ATP Bioluminescent Assay Kit (Sigma, Saint Louis Mich.) and a Spectramax M5 plate reader (Molecular Devices, Sunnyvale Calif.).

[8] = tested on: E. coli strain JW5503; assay: microbe, parasite or virus in culture; type: cell-based, Escherichia coli
Procedure: as §1, §2

[9] = tested on: HeLa cells; assay: Measurement of mitochondrial membrane potential (JC-1, flow cytometry); type: cell-based, human; settings: Mtx-Fxr3 16 μM 72 hours, FCCP 10 μM 6 minutes
Procedure: HeLa cells were seeded in at 6,250 cells per well in 24 well plates. […] Carbonyl cyanide 4-(trifluoromethoxy)phenylhydrazone (FCCP) was added at 10 μM for 6 minutes prior to analysis to disrupt the mitochondrial membrane potential. The mitchondrial membrane potential sensitive dye JC-1 (Invitrogen, Carlsbad Calif.) was added at 5 μg/mL for 10 minutes at 37° C. Cells were washed with PBS and harvested as described above. Samples were subsequently analyzed by flow cytometry on a BD FACSCanto flow cytometer (BD Biosciences) with excitation at 488 nm and emmission wavelengths of 530 nm and 585 nm collected. Ratio of these two emmission wavelengths was used to measure changes in mitochondrial membrane potential.

MIC ([1]; ATCC 29212): > 16 µM | MIC [2]: > 16 µM | MIC ([3]; ATCC 29213): > 32 µM | MIC ([4]; ATCC BAA-1720): > 32 µM | MIC ([5]; ATCC 49619): > 16 µM
SMILES: N=C(N)NCCC[C@@H](NC(=O)[C@H](CC1CCCCC1)NC(=O)[C@@H](CCCNC(=N)N)NC(=O)[C@H](CC1CCCCC1)NC(=O)[C@@H](CCCNC(=N)N)NC(=O)[C@@H](N)CC1CCCCC1)C(N)=O [Fxr3, FxrFxrFxr] (H-[Cha][dR][Cha][dR][Cha][dR]-NH2; N-terminus assumed)

SMILES: CN(Cc1cnc2nc(N)nc(N)c2n1)c1ccc(C(=O)N[C@@H](CCC(=O)N[C@@H](CC2CCCCC2)C(=O)N[C@H](CCCNC(=N)N)C(=O)N[C@@H](CC2CCCCC2)C(=O)N[C@H](CCCNC(=N)N)C(=O)N[C@@H](CC2CCCCC2)C(=O)N[C@H](CCCNC(=N)N)C(N)=O)C(=O)O)cc1 [Mtx-Fxr3, Mtx-FxrFxrFxr] ({DAMPA-γGlu}-[Cha][dR][Cha][dR][Cha][dR]-NH2)
CC50 at 72 h [6]: > 16 µM | effect on cellular ATP levels [7]: did not result in a decrease in cellular ATP levels; also recorded: did not affect | MIC (minimum inhibitory concentration) ([8]; strain JW5503, 16 h): 0.5 µM (≈ 0.691 µg/mL) | effect on mitochondrial membrane potential [9]: not perturb the mitochondrial membrane potential; also recorded: did not affect

SMILES: CN(Cc1cnc2nc(N)nc(N)c2n1)c1ccc(C(=O)N[C@@H](CCC(=O)O)C(=O)O)cc1 [Mtx, methotrexate, reference compound]
MIC ([1]; Enterococcus faecalis, ATCC29212, E. faecalis (ATCC 29212), Mem-alpha minus nucleotides): 4 µM (≈ 1.82 µg/mL) | MIC ([2]; Bacillus subtilis, B. subtilis, Mem-alpha minus nucleotides): > 16 µM | MIC ([3]; Staphylococcus aureus, ATCC29213, S. aureus (ATCC 29213), Mem-alpha minus nucleotides): > 32 µM | MIC ([8]; Escherichia coli, JW5503, 16 h, read-out: MIC (minimum inhibitory concentration)): > 32 µM | MIC ([4]; Staphylococcus aureus, MRSA (ATCC BAA-1720)): > 32 µM | MIC ([5]; Streptococcus pneumoniae, ATCC49619, S. pneumoniae (ATCC 49619), Mem-alpha minus nucleotides, 3% laked horse blood): 0.5 µM (≈ 0.227 µg/mL)

SMILES: N#CC(C#N)=NNc1ccc(OC(F)(F)F)cc1 [FCCP, Carbonyl cyanide 4-(trifluoromethoxy)phenylhydrazone, reference compound]
effect on mitochondrial membrane potential [9]: significant decrease in membrane potential

Source: patent US9173952B2, “Mitochondrial penetrating peptides as carriers for antimicrobials” (priority 2010, dated 2015)
